Reference: US20180133283A1, “METHOD AND COMPOSITIONS FOR SYNCHRONIZING TIME OF INSEMINATION IN GILTS” (JBS UNITED ANIMAL HEALTH II LLC, priority 2012, published 2018)

Key:
Type in all cases: in vivo, swine
serum LH = test: Example 5: blood collection and serum LH analysis (LH surge); settings: for Gilts, which displayed a LH surge: number of gilts
Procedure: A catheter was inserted non-surgically into the jugular vein (Kraeling et al. 1982) of a subpopulation of gilts in each treatment group (vehicle gel, n=8; 100 mcg triptorelin, n=6; 200 mcg triptorelin, n=7 and 400 mcg triptorelin, n=6). Ten mL blood samples were collected every 15 minutes for one hour prior to treatment, immediately following treatment (0) and at 0.5, 1, 2, 4, 6, 12, 18, 24, 36 and 48 hours after treatment. Blood samples were maintained at 4° C. until centrifuged at 800×g for 15 minutes within 12 hours of collection. The resulting serum was stored frozen until assayed for LH using validated procedures for pig serum (Kesner et al., 1987 and Kraeling et al., 1982). Onset, duration, and magnitude of the LH surge were analyzed. The LH data were analyzed with the General Linear Models procedure of SAS. Differences between treatments were tested on least squares means estimates using the T test at P<0.05. Onset of the LH surge is when serum LH concentration is greater than or equal to two standard deviations of the mean of the pre-treatment serum LH concentrations. Duration of the LH surge is the period between onset and when serum LH concentration is again less than or equal to two standard deviations of the mean of the pre-treatment serum LH concentrations. Magnitude of the LH surge is the maximum serum LH concentration reached during the LH surge.

gilts [1] = test: Example 5: estrus observation; settings: raw averages, PTK 2-07
Procedure: For post-treatment estrus detection, gilts were housed in individual pens. Boars were housed in separate rooms, and/or at least 12 m away and downwind. To elicit signs of estrus, a mature boar was walked slowly in the alley in front of the gilts' crates, exposing each test gilt to visual, auditory and olfactory signals from the boar for up to 5 minutes. In keeping with standard practice at commercial farms, while the boar was near the front of the gilt's crate, estrus was tested by an experienced person applying back pressure to the midsection of the gilt combined with side rubbing. Estrus was confirmed when a gilt stood rigidly to the back pressure, with no vocalization and with some indication of an ear reflex. Gilts were not exposed to boars during the first three days after withdrawal of MATRIX® (Day 0 to Day 2). Estrus detection was performed daily on all gilts from Day 3 to Day 7.

gilts [2] = test: Example 1: estrus observation (boar exposure, back pressure) after triptorelin gel; settings: raw averages; PTK 1-07 (rep 3); 200 mcg T at 120 h
Procedure: (§1) All gilts were individually fed MATRIX® as a top-dress for 14 days at the recommended rate of 15 mg/gilt/day. Gilts were withdrawn from MATRIX® feeding (last top feed in the morning on Day 0) and allotted to treatments. Controls were treated with a 1.2% methylcellulose gel formulation without triptorelin at 96 hours following MATRIX® withdrawal (last top-dress). The remaining gilts received 200 mcg triptorelin, as the acetate, in a 1.2% methylcellulose gel formulation intravaginally at various times after MATRIX® withdrawal. The four treatments were: 1) vehicle gel (VG) treatment at 96 hours after MATRIX® withdrawal, 2) triptorelin gel (TG) treatment at 96 hours after MATRIX® withdrawal, 3) TG treatment at 120 hours after MATRIX® withdrawal and 4) TG treatment at 144 hours after MATRIX® withdrawal. All gilts were monitored for their estrous and ovulatory status as described below. Gilts included in replicate 1 were selected from terminal line commercial production gilts located in grow/finish barns. Sexual maturity, as indicated by one or more estrous periods, was not verified prior to the start of MATRIX® feeding. Gilts included in replicate 2 were selected from a maternal line gilt population. Sexual maturity was verified by at least one estrous period verified and recorded prior to starting MATRIX® feeding.
For post-treatment estrus detection, gilts were housed in individual pens. […]

gilts [3] = test: Example 5: ovulation monitoring by transrectal ultrasonography after 100, 200 or 400 mcg triptorelin gel at 120 h after MATRIX withdrawal; settings: for Percentage ovulated by 48 hours: catheterized subpopulation; for % of Sows Ovulating: raw averages, PTK 2-07
Procedure: All gilts were individually fed MATRIX® as a top-dress for 14 or 15 days at the recommended rate of 15 mg/gilt/day. Gilts were withdrawn from MATRIX® feeding (last top-dress in the morning on Day 0) and allocated to each of the following treatments. Controls were vehicle gel treated (vehicle gel without triptorelin) at 120 (+/−2) hours following MATRIX® withdrawal (last top dress). The other gilts were given 100, 200 or 400 mcg triptorelin as the acetate in a methylcellulose gel formulation 120 (+/−2) hours following MATRIX® withdrawal. The four treatments were:
1. Vehicle gel (VG): vehicle gel without triptorelin at 120 (+/−2) hours after MATRIX® withdrawal.
2. TG 100: 100 mcg (2 mL 50 mcg/mL) triptorelin gel at 120 (+/−2) hours after MATRIX® withdrawal.
3. TG 200: 200 mcg (2 mL 100 mcg/mL) triptorelin gel at 120 (+/−2) hours after MATRIX® withdrawal.
4. TG 400: 400 mcg (2 mL 200 mcg/mL) triptorelin gel at 120 (+/−2) hours after MATRIX® withdrawal.
Ovulation was monitored twice on Day 5 (8 hours and 16 hours post-treatment) and every 8 hours on Day 6 and Day 7 or until ovulation was confirmed or 176 hours following last MATRIX® feeding. The ovulatory status of all gilts was monitored by transrectal ultrasonography. An Aloka 500 ultrasound machine is used for this purpose, with a 7.5 MHz linear array transducer attached to a fixed-angle PVC stabilizing rod to facilitate insertion into the rectum. The transducer and PVC rod are coated with a gynecological lubricant and gently inserted into the rectum until the ovaries can be visualized, one at a time. The diameters of the three largest follicles were recorded (to the nearest 0.1 mm) at each scanning. A gilt was declared to have ovulated when the number of large follicles 6.5 mm) fell to less than 3.
(§2) A single 2 mL dose of triptorelin gel or vehicle gel was deposited within approximately 1-2 cm posterior to the cervix with a catheter similar to those used for artificial insemination. The dose was delivered using a standard multi-dose applicator attached to the catheter. A new disposable sheath, which surrounds the catheter, was used for each gilt.

gilts [4] = test: Example 1: ovulation monitoring by transrectal ultrasonography after 200 mcg triptorelin gel intravaginally at 96, 120 or 144 h after MATRIX withdrawal; settings: raw averages, PTK 1-07 (rep 3), 200 mcg T
Procedure: as §1
The ovulatory status of all gilts was monitored by transrectal ultrasonography. For replicate one, ovulation was monitored two times on Day 5, then three times a day from Day 6 to Day 8. For replicate two, ovulation was monitored three times a day from Day 5 to Day 8. An Aloka 500 ultrasound machine with a 7.5 MHz linear array transducer attached to a fixed-angle PVC stabilizing rod to facilitate insertion into the rectum was used for this purpose. The transducer and PVC rod were coated with a gynecological lubricant and gently inserted into the rectum until the ovaries were visualized, one at a time. The diameters of the three largest follicles were recorded (to the nearest 0.1 mm) at each scanning. A gilt was declared to have ovulated when the number of large follicles (≥6.5 mm) fell to less than 3.
as §2
Data were analyzed using the Mixed Models procedures of SAS. Models included main effects of time of treatment following the last feeding of MATRIX®, replicate, and treatment by replicate interaction. Differences between treatments were tested on least squares means estimates using the T test at P<0.05. Data for analysis were tested for assumptions of data normality.

[5] = relative to time of triptorelin gel treatment, 200 mcg T

CC(C)C[C@H](NC(=O)[C@@H](Cc1c[nH]c2ccccc12)NC(=O)[C@H](Cc1ccc(O)cc1)NC(=O)[C@H](CO)NC(=O)[C@H](Cc1c[nH]c2ccccc12)NC(=O)[C@H](Cc1c[nH]cn1)NC(=O)[C@@H]1CCC(=O)N1)C(=O)N[C@@H](CCCNC(=N)N)C(=O)N1CCC[C@H]1C(=O)NCC(N)=O [T, pGlu-His-Trp-Ser-Tyr-D-Trp-Leu-Arg-Pro-Gly-NH2]
Duration of LH surge (serum LH; 200 mcg T): 18 | Onset of LH surge (serum LH; LS mean ± SE, relative to time of triptorelin gel treatment, 100 mcg T): 4 ± 3 | Onset of LH surge (serum LH; LS mean ± SE, relative to time of triptorelin gel treatment, 400 mcg T): 4 ± 4 | Gilts, which displayed a LH surge (serum LH; 100 mcg T (n = 6)): 4 | Gilts, which displayed a LH surge (serum LH; 200 mcg T (n = 7)): 1 | Gilts, which displayed a LH surge (serum LH; 400 mcg T (n = 6)): 5 | Onset of LH surge (serum LH; [5]): 0.5 | Time of maximum LH conc. (serum LH; [5]): 4 h | Estrous Expression (%) (gilts [1]; 100 mcg T at 120 h): 75.0% | Estrous Expression (%) (gilts [1]; 200 mcg T at 120 h): 81.0% | Estrous Expression (%) (gilts [2]): 100.0% | Percentage ovulated by 48 hours (gilts [3]; 100 mcg T (n = 6)): 100% | Percentage ovulated by 48 hours (gilts [3]; 200 mcg T (n = 7)): 100% | Percentage ovulated by 48 hours (gilts [3]; 400 mcg T (n = 6)): 100% | % of Sows Ovulating (gilts [3]; 100 mcg T, 128 h post-MATRIX, 8 h post-T): 0.0% | % of Sows Ovulating (gilts [3]; 100 mcg T, 136 h post-MATRIX, 16 h post-T): 5.0% | % of Sows Ovulating (gilts [3]; 100 mcg T, 144 h post-MATRIX, 24 h post-T): 20.0% | % of Sows Ovulating (gilts [3]; 100 mcg T, 152 h post-MATRIX, 32 h post-T): 30.0% | % of Sows Ovulating (gilts [3]; 100 mcg T, 160 h post-MATRIX, 40 h post-T): 60.0% | % of Sows Ovulating (gilts [3]; 100 mcg T, 168 h post-MATRIX, 48 h post-T): 95.0% | % of Sows Ovulating (gilts [3]; 100 mcg T, 176 h post-MATRIX, 56 h post-T): 100.0% | % of Sows Ovulating (gilts [3]; 200 mcg T, 128 h post-MATRIX, 8 h post-T): 0.0% | % of Sows Ovulating (gilts [3]; 200 mcg T, 136 h post-MATRIX, 16 h post-T): 0.0% | % of Sows Ovulating (gilts [3]; 400 mcg T, 128 h post-MATRIX, 8 h post-T): 4.5% | % of Sows Ovulating (gilts [3]; 400 mcg T, 136 h post-MATRIX, 16 h post-T): 9.1% | % of Sows Ovulating (gilts [3]; 400 mcg T, 168 h post-MATRIX, 48 h post-T): 100.0% | % of Sows Ovulating (gilts [3]; 400 mcg T, 176 h post-MATRIX, 56 h post-T): 100.0% | % of Sows Ovulating (gilts [4]; 128 h post-MATRIX, 8 h post-T): 0.0% | % of Sows Ovulating (gilts [4]; 136 h post-MATRIX, 16 h post-T): 10.0% | % of Sows Ovulating (gilts [4]; 144 h post-MATRIX, 24 h post-T): 30.0% | % of Sows Ovulating (gilts [4]; 152 h post-MATRIX, 32 h post-T): 70.0% | % of Sows Ovulating (gilts [4]; 160 h post-MATRIX, 40 h post-T): 80.0% | % of Sows Ovulating (gilts [4]; 168 h post-MATRIX, 48 h post-T): 90.0% | % of Sows Ovulating (gilts [4]; 176 h post-MATRIX, 56 h post-T): 100.0%
